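Briefly, cells in 96-well plates were exposed to five compound concentrations for 48 h, and endpoints were estimated by linear interpolation. GI50: concentration for 50% inhibition of growth. TGI is the concentration that stops growth completely.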
Legend:
Assay in all cases: DTP human tumour cell line panel, 48 h; in the data active means GI50 below about 0.43 µM; inactive means the rest
RPMI-8226 leukemia = tested on: RPMI-8226 leukemia
SK-MEL-2 melanoma = tested on: SK-MEL-2 melanoma
NCI-H460 lung = tested on: NCI-H460 lung
786-0 renal = tested on: 786-0 renal
LOX IMVI melanoma = tested on: LOX IMVI melanoma
HT29 colon = tested on: HT29 colon
HOP-92 NSCLC = tested on: HOP-92 NSCLC
A498 renal = tested on: A498 renal
HL-60(TB) leukemia = tested on: HL-60(TB) leukemia
UO-31 renal = tested on: UO-31 renal
NCI/ADR-RES ovarian = tested on: NCI/ADR-RES ovarian
UACC-257 melanoma = tested on: UACC-257 melanoma
PC-3 prostate = tested on: PC-3 prostate
HCC-2998 colon = tested on: HCC-2998 colon
HOP-62 NSCLC = tested on: HOP-62 NSCLC
SF-295 CNS = tested on: SF-295 CNS
SF-539 CNS = tested on: SF-539 CNS
T-47D breast = tested on: T-47D breast
DU-145 prostate = tested on: DU-145 prostate
K-562 leukemia = tested on: K-562 leukemia
A549 NSCLC = tested on: A549 NSCLC
TK-10 renal = tested on: TK-10 renal
EKVX NSCLC = tested on: EKVX NSCLC
MDA-MB-435 = tested on: MDA-MB-435
SK-MEL-28 melanoma = tested on: SK-MEL-28 melanoma
MALME-3M melanoma = tested on: MALME-3M melanoma
MOLT-4 leukemia = tested on: MOLT-4 leukemia
SNB-19 CNS = tested on: SNB-19 CNS
COLO 205 colon = tested on: COLO 205 colon
NCI-H226 lung = tested on: NCI-H226 lung
BT-549 breast = tested on: BT-549 breast
CAKI-1 renal = tested on: CAKI-1 renal
HS 578T breast = tested on: HS 578T breast
NCI-H522 lung = tested on: NCI-H522 lung
SK-OV-3 ovarian = tested on: SK-OV-3 ovarian
OVCAR-8 ovarian = tested on: OVCAR-8 ovarian
U251 CNS = tested on: U251 CNS
ACHN renal = tested on: ACHN renal
RXF 393 renal = tested on: RXF 393 renal
HCT-116 colon = tested on: HCT-116 colon
SNB-75 CNS = tested on: SNB-75 CNS
MDA-MB-231 breast = tested on: MDA-MB-231 breast
CCRF-CEM leukemia = tested on: CCRF-CEM leukemia
SN12C renal = tested on: SN12C renal
OVCAR-5 ovarian = tested on: OVCAR-5 ovarian
OVCAR-3 ovarian = tested on: OVCAR-3 ovarian
NCI-H23 lung = tested on: NCI-H23 lung
SK-MEL-5 melanoma = tested on: SK-MEL-5 melanoma
MCF7 breast = tested on: MCF7 breast
UACC-62 melanoma = tested on: UACC-62 melanoma
SW-620 colon = tested on: SW-620 colon
HCT-15 colon = tested on: HCT-15 colon
SR leukemia = tested on: SR leukemia
OVCAR-4 ovarian = tested on: OVCAR-4 ovarian
KM12 colon = tested on: KM12 colon
IGROV1 ovarian = tested on: IGROV1 ovarian
SF-268 CNS = tested on: SF-268 CNS

Cc1ccc(OCCOCCOCCOCCOc2ccc(C)n(O)c2=S)c(=S)n1O
active: GI50 (RPMI-8226 leukemia) 26.7 nM | GI50 (NCI-H460 lung) < 10 nM | GI50 (786-0 renal) 335 nM | GI50 (LOX IMVI melanoma) 48.1 nM | GI50 (HT29 colon) < 10 nM | GI50 (A498 renal) 323 nM | GI50 (HL-60(TB) leukemia) 110 nM | GI50 (UO-31 renal) 17.7 nM | GI50 (NCI/ADR-RES ovarian) < 15.8 nM | GI50 (UACC-257 melanoma) 19.2 nM | GI50 (PC-3 prostate) 15.5 nM | GI50 (HCC-2998 colon) 250 nM | GI50 (HOP-62 NSCLC) 184 nM | GI50 (SF-295 CNS) 26.1 nM | GI50 (SF-539 CNS) 317 nM | GI50 (T-47D breast) < 10 nM | GI50 (DU-145 prostate) 184 nM | GI50 (K-562 leukemia) < 10 nM | GI50 (A549 NSCLC) 44.9 nM | GI50 (EKVX NSCLC) 21.3 nM | GI50 (MDA-MB-435) 366 nM | GI50 (SK-MEL-28 melanoma) 356 nM | GI50 (MALME-3M melanoma) 64.4 nM | GI50 (MOLT-4 leukemia) < 10 nM | GI50 (SNB-19 CNS) 221 nM | GI50 (COLO 205 colon) 48.4 nM | GI50 (NCI-H226 lung) < 29.1 nM | GI50 (CAKI-1 renal) < 14.6 nM | GI50 (NCI-H522 lung) 29.4 nM | GI50 (SK-OV-3 ovarian) 75.3 nM | GI50 (OVCAR-8 ovarian) < 13.7 nM | GI50 (U251 CNS) 63.2 nM | GI50 (ACHN renal) < 14.7 nM | GI50 (HCT-116 colon) < 10 nM | GI50 (MDA-MB-231 breast) 114 nM | GI50 (CCRF-CEM leukemia) < 10 nM | GI50 (SN12C renal) 26.6 nM | GI50 (OVCAR-5 ovarian) 408 nM | GI50 (OVCAR-3 ovarian) < 10 nM | GI50 (NCI-H23 lung) 16.6 nM | GI50 (SK-MEL-5 melanoma) 43.8 nM | GI50 (MCF7 breast) < 10 nM | GI50 (UACC-62 melanoma) 115 nM | GI50 (SW-620 colon) < 12.7 nM | GI50 (HCT-15 colon) < 10.4 nM | GI50 (SR leukemia) 61.6 nM | GI50 (OVCAR-4 ovarian) < 10.5 nM | GI50 (KM12 colon) 81.8 nM | GI50 (IGROV1 ovarian) < 10 nM | GI50 (SF-268 CNS) 48.2 nM
54300 nM: TGI (IGROV1 ovarian)
43600 nM: TGI (MCF7 breast)
12700 nM: TGI (NCI-H226 lung)
> 29500 nM: TGI (UACC-257 melanoma)
40500 nM: TGI (UACC-62 melanoma)
> 90800 nM: TGI (HOP-92 NSCLC)
inactive: GI50 (SK-MEL-2 melanoma) 4860 nM | GI50 (HOP-92 NSCLC) 4780 nM | GI50 (TK-10 renal) 527 nM | GI50 (BT-549 breast) 520 nM | GI50 (HS 578T breast) 3580 nM | GI50 (RXF 393 renal) 1550 nM | GI50 (SNB-75 CNS) 3490 nM
10900 nM: TGI (A498 renal)
5950 nM: TGI (HL-60(TB) leukemia)
22300 nM: TGI (RXF 393 renal)
> 100000 nM: TGI (SK-MEL-2 melanoma) | TGI (786-0 renal) | TGI (HT29 colon) | TGI (NCI/ADR-RES ovarian) | TGI (PC-3 prostate) | TGI (HCC-2998 colon) | TGI (HOP-62 NSCLC) | TGI (SF-295 CNS) | TGI (SF-539 CNS) | TGI (T-47D breast) | TGI (DU-145 prostate) | TGI (K-562 leukemia) | TGI (A549 NSCLC) | TGI (TK-10 renal) | TGI (EKVX NSCLC) | TGI (MDA-MB-435) | TGI (SK-MEL-28 melanoma) | TGI (MOLT-4 leukemia) | TGI (SNB-19 CNS) | TGI (COLO 205 colon) | TGI (BT-549 breast) | TGI (CAKI-1 renal) | TGI (HS 578T breast) | TGI (SK-OV-3 ovarian) | TGI (OVCAR-8 ovarian) | TGI (U251 CNS) | TGI (ACHN renal) | TGI (HCT-116 colon) | TGI (SNB-75 CNS) | TGI (MDA-MB-231 breast) | TGI (CCRF-CEM leukemia) | TGI (SN12C renal) | TGI (OVCAR-5 ovarian) | TGI (NCI-H23 lung) | TGI (SW-620 colon) | TGI (HCT-15 colon) | TGI (SR leukemia) | TGI (KM12 colon) | TGI (SF-268 CNS)
> 64000 nM: TGI (RPMI-8226 leukemia)
55000 nM: TGI (OVCAR-4 ovarian)
> 52700 nM: TGI (MALME-3M melanoma)
4140 nM: TGI (UO-31 renal)
7280 nM: TGI (NCI-H460 lung)
11300 nM: TGI (SK-MEL-5 melanoma)
> 79700 nM: TGI (NCI-H522 lung)
> 69600 nM: TGI (LOX IMVI melanoma)
50800 nM: TGI (OVCAR-3 ovarian)
